Values quoted from earlier work as cited in patent US20100273186A1, “SPLIT MUTANT HYDROLASE FUSION REPORTER AND USES THEREOF” (Promega Corporation, priority 2007, published 2010).

System: Photinus pyralis luciferase

| Substance | reduction of activity on addition of cyclic AMP dependent protein kinase catalytic subunit (Waud et al.) | decrease of activity when phosphorylated (Sala-Newby et al.) |
| --- | --- | --- |
| LRRASLG | 30% | – |
| RRFS: Photinus pyralis luciferase mutant, V217R generating site RRFS (SEQ ID NO:11), Sala-Newby et al. | – | up to 80% |
